Test results: paper PMC10530836, “Synthesis, Molecular Docking, and Biological Evaluation of Novel Anthranilic Acid Hybrid and Its Diamides as Antispasmodics” (International Journal of Molecular Sciences, 2023)

Key:
[1] = test system: K-562, LAMA-84, T-24, CCL-1 cell lines; test: MTT cell viability assay, cell line panel; type: cell-based; settings: leukemic cells LAMA-84 and K-562; read-out: IC50 estimates
Description: Based on the PASS online and the ProToxII in silico calculations, the evaluation of the cytotoxic activity of the compounds was the other object of our investigation. A series of MTT experiments were conducted to evaluate the in vitro effects of the tested compounds on cell growth in both normal (murine fibroblast CCL-1 cells) and malignant human cell lines of leukemic (K-562, LAMA-84) and epithelial (T-24 bladder carcinoma cells) origin.
To evaluate the biocompatibility of the hybrid compounds, their in vitro antiproliferative activity was assessed in a panel of human malignant cell lines of different origin (K-562 and LAMA-84 suspension-growing myeloid leukemia cells, positive for the Philadelphia chromosome, and the urothelial bladder carcinoma cell line T-24 of adherent type). Non-malignant murine fibroblast cells (CCL-1) were also used as a screening platform. […]
The effects of the newly synthesized anthranilic derivatives on cell viability were measured using a validated colorimetric assay for evaluating cell viability, known as the Mosmann MTT method. […] The latter was dissolved in isopropyl alcohol solution containing 5% formic acid prior to absorbance measurement at 550 nm. Collected absorbance values were blanked against MTT and isopropanol solution and normalized to the mean value of untreated control (100% cell viability).

[2] = test system: Gram-positive bacteria, Gram-negative bacteria, yeasts and fungi; test: Antimicrobial activity, whole panel; type: cell-based; settings: agar well diffusion
Description: In our experiments, six Gram-positive bacteria, six Gram-negative bacteria, two yeasts, and six fungi were used. The hybrid molecule and its diamides were tested in vitro for their antimicrobial activity against human pathogenic bacteria and economically relevant phytopathogenic fungi. The inhibition zones of bacterial and fungal growth caused by the novel compounds are outlined in Table 3. The obtained results were compared to a known antispasmodic mebeverine and its precursors. […]
The antimicrobial activity of the samples was determined by the agar well diffusion method. […]
The inocula of the tested bacteria/yeasts was prepared by homogenization of a small amount of biomass in 5 mL of sterile 0.5% NaCl. […] The number of viable cells and fungal spores was determined using a bacterial counting chamber Thoma (Poly-Optik, GmbH, Bad Blankenburg, Germany). […] Next, the inoculated media were transferred in a quantity of 18 mL in sterile Petri plates (d = 90 mm) (Gosselin™, Hazebrouck, France) and allowed to harden. […]
The antimicrobial activity was determined by measuring the diameter of the inhibition zones around the wells on the 24th and 48th h of incubation. […]

| SMILES | IC50 [1] [µM] | antimicrobial activity (overall, in words) [2] |
| --- | --- | --- |
| O=C(Nc1ccccc1C(=O)NCCc1cccc(Cl)c1)c1ccccc1 [Compound 4b, 2-benzamido-N-(3-chlorophenethyl)benzamide] | 30 to 60 | – |
| Nc1ccccc1C(=O)NCCc1cccc(Cl)c1 [Compound 3, 2-amino-N-(3-chlorophenethyl)benzamide] | – | very good antimicrobial activity |
